{
  "source": "patent US8501713B2",
  "about": "“Drug combinations for the treatment of duchenne muscular dystrophy” (Summit Corporation PLC, priority 2007, dated 2013)",
  "data": [
    {"system": "Utrophin A promoter linked to a luciferase reporter gene", "experiment": "Luciferase reporter assay (murine H2K cells)", "format": "cell-based", "conditions": "Mus musculus, H2K mdx, luciferase level relative to control; H2K/mdx/Utro A reporter cells; compound 10 μM final concentration; read-out: Activity", "procedure,_shortened": "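Compound at 10 μM final was applied for 48 hrs to plated H2K mdx myoblasts (33° C, 10% CO2, interferon-containing medium) bearing a luciferase gene under the utrophin A promoter. Luminescence from lysed cells served as read-out.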", "units": {"activity at 10 µM": "%"}, "values": [
      {"smiles": "O=C(Cc1ccccc1)Nc1ccc2oc(Cc3ccccc3)nc2c1", "note": "[Example 165, N-(2-benzylbenzo[d]oxazol-5-yl)-2-phenylacetamide]", "activity at 10 µM": "< 200"},
      {"smiles": "CCCC(=O)Nc1ccc2[nH]c(-c3ccc(C)cc3)nc2c1", "note": "[Example 166, N-(2-p-tolyl-1H-benzo[d]imidazol-5-yl)butyramide]", "activity at 10 µM": "< 200"},
      {"smiles": "CCCCNc1ccc2oc(-c3ccccc3)nc2c1", "note": "[Example 167, N-butyl-2-phenylbenzo[d]oxazol-5-amine]", "activity at 10 µM": "> 401"},
      {"smiles": "CC(C)CNc1ccc2oc(-c3ccccc3)nc2c1", "note": "[Example 168, N-isobutyl-2-phenylbenzo[d]oxazol-5-amine]", "activity at 10 µM": "> 401"},
      {"smiles": "Nc1cnc2oc(-c3ccccc3)nc2c1", "note": "[Example 169, 2-phenyloxazolo[5,4-b]pyridin-6-amine]", "activity at 10 µM": "< 200"},
      {"smiles": "CCCC(=O)Nc1cnc2oc(-c3ccccc3)nc2c1", "note": "[Example 170, N-(2-phenyloxazolo[5,4-b]pyridin-6-yl)butyramide]", "activity at 10 µM": "< 200"},
      {"smiles": "O=[N+]([O-])c1ccc2oc(-c3ccccn3)nc2c1", "note": "[Example 171, 5-nitro-2-(pyridin-2-yl)benzo[d]oxazole]", "activity at 10 µM": "< 200"},
      {"smiles": "Cc1ccc(-c2nc3cc(C(C)(C)C)ccc3o2)cc1", "note": "[Example 172, 5-tert-butyl-2-p-tolylbenzo[d]oxazole]", "activity at 10 µM": "> 401"},
      {"smiles": "Cc1ccc(-c2nc3ccccc3o2)cc1", "note": "[Example 173, 2-p-tolylbenzo[d]oxazole]", "activity at 10 µM": "301 to 400"},
      {"smiles": "Nc1ccc2oc(-c3cccc(C(F)(F)F)c3)nc2c1", "note": "[Example 174, 2-(3-(trifluoromethyl)phenyl)benzo[d]oxazol-5-amine]", "activity at 10 µM": "< 200"},
      {"smiles": "Cc1ccc(-c2nc3cc(NC(=O)C(C)C)ccc3[nH]2)cc1", "note": "[Example 175, N-(2-p-tolyl-1H-benzo[d]imidazol-5-yl)isobutyramide]", "activity at 10 µM": "< 200"},
      {"smiles": "CCCCNC(=O)c1ccc2oc(-c3ccc(C)cc3)nc2c1", "note": "[Example 176, N-butyl-2-p-tolylbenzo[d]oxazole-5-carboxamide]", "activity at 10 µM": "201 to 300"},
      {"smiles": "CCCNC(=O)c1ccc2oc(-c3ccc(C)cc3)nc2c1", "note": "[Example 177, N-propyl-2-p-tolylbenzo[d]oxazole-5-carboxamide]", "activity at 10 µM": "> 401"},
      {"smiles": "CCCC(=O)Nc1ccc2[nH]c(-c3ccc(Cl)cc3)nc2c1", "note": "[Example 178, N-(2-(4-chlorophenyl)-1H-benzo[d]imidazol-5-yl)butyramide]", "activity at 10 µM": "< 200"},
      {"smiles": "CCS(=O)(=O)c1ccc2oc(-c3ccc(C)cc3)nc2c1", "note": "[Example 179, 5-(ethylsulfonyl)-2-p-tolylbenzo[d]oxazole]", "activity at 10 µM": "> 401"},
      {"smiles": "CCS(=O)(=O)c1ccc2oc(-c3ccc(Cl)cc3)nc2c1", "note": "[Example 180, 2-(4-chlorophenyl)-5-(ethylsulfonyl)benzo[d]oxazole]", "activity at 10 µM": "> 401"},
      {"smiles": "Cc1ccc(-c2nc3cc(C(=O)NC(C)C)ccc3o2)cc1", "note": "[Example 181, N-isopropyl-2-p-tolylbenzo[d]oxazole-5-carboxamide]", "activity at 10 µM": "301 to 400"},
      {"smiles": "CCCCNc1ccc2oc(-c3ccc(Cl)cc3)nc2c1", "note": "[Example 182, N-butyl-2-(4-chlorophenyl)benzo[d]oxazol-5-amine]", "activity at 10 µM": "301 to 400"},
      {"smiles": "CC(C)CNc1ccc2oc(-c3ccc(Cl)cc3)nc2c1", "note": "[Example 183, 2-(4-chlorophenyl)-N-isobutylbenzo[d]oxazol-5-amine]", "activity at 10 µM": "301 to 400"},
      {"smiles": "Clc1ccc(-c2nc3cc(NCc4ccccc4)ccc3o2)cc1", "note": "[Example 184, N-benzyl-2-(4-chlorophenyl)benzo[d]oxazol-5-amine]", "activity at 10 µM": "< 200"},
      {"smiles": "CCCCNc1ccc2oc(-c3ccc(C)cc3)nc2c1", "note": "[Example 185, N-butyl-2-p-tolylbenzo[d]oxazol-5-amine]", "activity at 10 µM": "301 to 400"},
      {"smiles": "Cc1ccc(-c2nc3cc(NCC(C)C)ccc3o2)cc1", "note": "[Example 186, N-isobutyl-2-p-tolylbenzo[d]oxazol-5-amine]", "activity at 10 µM": "301 to 400"},
      {"smiles": "Cc1ccc(-c2nc3cc(NCc4ccccc4)ccc3o2)cc1", "note": "[Example 187, N-benzyl-2-p-tolylbenzo[d]oxazol-5-amine]", "activity at 10 µM": "301 to 400"},
      {"smiles": "CC(C)C(=O)Nc1ccc2[nH]c(-c3ccccc3)nc2c1", "note": "[Example 188, N-(2-phenyl-1H-benzo[d]imidazol-5-yl)isobutyramide]", "activity at 10 µM": "301 to 400"},
      {"smiles": "Cc1ccc(-c2nc3c([N+](=O)[O-])cccc3o2)cc1", "note": "[Example 189, 4-nitro-2-p-tolylbenzo[d]oxazole]", "activity at 10 µM": "< 200"},
      {"smiles": "Cc1ccc(-c2nc3ccc([N+](=O)[O-])cc3o2)cc1", "note": "[Example 190, 6-nitro-2-p-tolylbenzo[d]oxazole]", "activity at 10 µM": "301 to 400"},
      {"smiles": "O=[N+]([O-])c1ccc2nc(-c3ccc(Cl)cc3)oc2c1", "note": "[Example 191, 2-(4-chlorophenyl)-6-nitrobenzo[d]oxazole]", "activity at 10 µM": "201 to 300"},
      {"smiles": "Cc1ccc(-c2nc3cnccc3o2)cc1", "note": "[Example 192, 2-p-tolyloxazolo[4,5-c]pyridine]", "activity at 10 µM": "< 200"},
      {"smiles": "CCCS(=O)(=O)Nc1ccc2oc(-c3ccccc3)nc2c1", "note": "[Example 193, N-(2-phenylbenzo[d]oxazol-5-yl)propane-1-sulfonamide]", "activity at 10 µM": "201 to 300"},
      {"smiles": "CCCC(=O)Nc1ccc2[nH]c(-c3ccccc3)nc2c1", "note": "[Example 194, N-(2-phenyl-1H-benzo[d]imidazol-5-yl)butyramide]", "activity at 10 µM": "201 to 300"},
      {"smiles": "CC(C)C(=O)Nc1ccc2[nH]c(-c3ccc(Cl)cc3)nc2c1", "note": "[Example 195, N-(2-(4-chlorophenyl)-1H-benzo[d]imidazol-5-yl)isobutyramide]", "activity at 10 µM": "201 to 300"},
      {"smiles": "Cc1cccc(-c2nc3cc(N)ccc3o2)c1", "note": "[Example 196, 2-m-tolylbenzo[d]oxazol-5-amine]", "activity at 10 µM": "< 200"},
      {"smiles": "CN(C)c1cccc(-c2nc3cc(N)ccc3o2)c1", "note": "[Example 197, 2-(3-(dimethylamino)phenyl)benzo[d]oxazol-5-amine]", "activity at 10 µM": "< 200"},
      {"smiles": "Cc1ccc(-c2nc3cc(Br)ccc3o2)cc1", "note": "[Example 198, 5-bromo-2-p-tolylbenzo[d]oxazole]", "activity at 10 µM": "301 to 400"},
      {"smiles": "COc1ccc(-c2ccc3oc(-c4ccc(C)cc4)nc3c2)cc1", "note": "[Example 199, 5-(4-methoxyphenyl)-2-p-tolylbenzo[d]oxazole]", "activity at 10 µM": "< 200"},
      {"smiles": "CCCC(=O)Nc1ccc2oc(-c3cccc(C)c3)nc2c1", "note": "[Example 200, N-(2-m-tolylbenzo[d]oxazol-5-yl)butyramide]", "activity at 10 µM": "> 401"},
      {"smiles": "CCCC(=O)Nc1ccc2oc(-c3cccc(N(C)C)c3)nc2c1", "note": "[Example 201, N-(2-(3-(dimethylamino)phenyl)benzo[d]oxazol-5-yl)butyramide]", "activity at 10 µM": "< 200"},
      {"smiles": "Cc1cccc(-c2nc3cc(NC(=O)C(C)C)ccc3o2)c1", "note": "[Example 202, N-(2-m-tolylbenzo[d]oxazol-5-yl)isobutyramide]", "activity at 10 µM": "> 401"},
      {"smiles": "CC(C)C(=O)Nc1ccc2oc(-c3cccc(C(F)(F)F)c3)nc2c1", "note": "[Example 203, N-(2-(3-(trifluoromethyl)phenyl)benzo[d]oxazol-5-yl)isobutyramide]", "activity at 10 µM": "< 200"},
      {"smiles": "CC(C)C(=O)Nc1ccc2oc(-c3cccc(N(C)C)c3)nc2c1", "note": "[Example 204, N-(2-(3-(dimethylamino)phenyl)benzo[d]oxazol-5-yl)isobutyramide]", "activity at 10 µM": "> 401"},
      {"smiles": "Cc1ccccc1-c1nc2cc(N)ccc2o1", "note": "[Example 205, 2-o-tolylbenzo[d]oxazol-5-amine]", "activity at 10 µM": "301 to 400"},
      {"smiles": "Nc1ccc2oc(-c3ccccc3Cl)nc2c1", "note": "[Example 206, 2-(2-chlorophenyl)benzo[d]oxazol-5-amine]", "activity at 10 µM": "201 to 300"},
      {"smiles": "CCC(=O)Nc1ccc2oc(-c3ccc(Cl)cc3)nc2c1", "note": "[Example 207, N-(2-(4-chlorophenyl)benzo[d]oxazol-5-yl)propionamide]", "activity at 10 µM": "> 401"},
      {"smiles": "Cc1ccc(-c2nc3cc(NC(=O)C(C)(C)C)ccc3o2)cc1", "note": "[Example 208, N-(2-p-tolylbenzo[d]oxazol-5-yl)pivalamide]", "activity at 10 µM": "201 to 300"},
      {"smiles": "Cc1ccc(-c2nc3cc(NC(=O)C(F)(F)F)ccc3o2)cc1", "note": "[Example 209, 2,2,2-trifluoro-N-(2-p-tolylbenzo[d]oxazol-5-yl)acetamide]", "activity at 10 µM": "201 to 300"},
      {"smiles": "CC(C)(C)C(=O)Nc1ccc2oc(-c3ccc(Cl)cc3)nc2c1", "note": "[Example 210, N-(2-(4-chlorophenyl)benzo[d]oxazol-5-yl)pivalamide]", "activity at 10 µM": "201 to 300"},
      {"smiles": "O=C(Nc1ccc2oc(-c3ccc(Cl)cc3)nc2c1)C(F)(F)F", "note": "[Example 211, N-(2-(4-chlorophenyl)benzo[d]oxazol-5-yl)-2,2,2-trifluoroacetamide]", "activity at 10 µM": "201 to 300"},
      {"smiles": "Cc1ccc(-c2nc3cc(Br)cnc3o2)cc1", "note": "[Example 212, 6-bromo-2-p-tolyloxazolo[5,4-b]pyridine]", "activity at 10 µM": "201 to 300"},
      {"smiles": "Cc1ccc(-c2nc3cc(N)ccc3s2)cc1", "note": "[Example 213, 2-p-tolylbenzo[d]thiazol-5-amine]", "activity at 10 µM": "< 200"},
      {"smiles": "O=[N+]([O-])c1ccc2oc(Cc3ccccc3)nc2c1", "note": "[Example 214, 2-benzyl-5-nitrobenzo[d]oxazole]", "activity at 10 µM": "< 200"},
      {"smiles": "Cc1ccc(-c2nc3cc(C)c(C)cc3o2)cc1", "note": "[Example 215, 5,6-dimethyl-2-p-tolylbenzo[d]oxazole]", "activity at 10 µM": "> 401"},
      {"smiles": "CCCC(=O)Nc1ccc2sc(-c3ccc(C)cc3)nc2c1", "note": "[Example 216, N-(2-p-tolylbenzo[d]thiazol-5-yl)butyramide]", "activity at 10 µM": "> 401"},
      {"smiles": "Cc1ccc(-c2nc3cc(NC(=O)C(C)C)ccc3s2)cc1", "note": "[Example 217, N-(2-p-tolylbenzo[d]thiazol-5-yl)isobutyramide]", "activity at 10 µM": "> 401"},
      {"smiles": "Cc1ccc(-c2nc3cc(C(N)=O)ccc3o2)cc1", "note": "[Example 218, 2-p-tolylbenzo[d]oxazole-5-carboxamide]", "activity at 10 µM": "> 401"},
      {"smiles": "CCC(=O)N(C)c1ccc2oc(-c3ccc(Cl)cc3)nc2c1", "note": "[Example 219, N-(2-(4-chlorophenyl)benzo[d]oxazol-5-yl)-N-methylpropionamide]", "activity at 10 µM": "301 to 400"},
      {"smiles": "CC(C)S(=O)(=O)Nc1ccc2oc(-c3ccccc3)nc2c1", "note": "[Example 220, N-(2-phenylbenzo[d]oxazol-5-yl)propane-2-sulfonamide]", "activity at 10 µM": "201 to 300"},
      {"smiles": "O=S(=O)(Nc1ccc2oc(-c3ccccc3)nc2c1)c1ccccc1", "note": "[Example 221, N-(2-phenylbenzo[d]oxazol-5-yl)benzenesulfonamide]", "activity at 10 µM": "< 200"}
    ]}
  ]
}
